Holding throughout (experiment): DTP human tumour cell line panel, 48 h
For assay [1], the system named is BT-549 breast.
Assay [2] relates to COLO 205 colon.
Assay [3] relates to NCI-H522 lung.
The subject of assay [4] is NCI/ADR-RES ovarian.
In assay [5] the test system is OVCAR-3 ovarian.
Assay [6] relates to OVCAR-8 ovarian.
Assay [7] has as its system SK-MEL-28 melanoma.
The test system of assay [8] is SNB-75 CNS.
For assay [9], the system named is SW-620 colon.
In assay [10] the test system is HL-60(TB) leukemia.

SMILES strings stand for the structures.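 Method: 48-hour compound exposure of cells in 96-well plates, five concentrations, linear interpolation of endpoints. Abbreviation: GI50, concentration required for 50% inhibition of growth. TGI: total growth inhibition.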

In general, TGI refers to the concentration at which net growth stops. Broadly, the GI50 is the concentration giving 50% growth inhibition.

As to `COc1cc2c(cc1O)-c1c(cnn1-c1ccc([N+](=O)[O-])cc1)CCC2`, the TGI in assay [1] was determined as 76.1 µM; in assay [2] it was 38.1 µM; in [3], 40.9 µM; in [4] it was 42.7 µM; in assay [5] it was 55.2 µM; in assay [6], 50.3 µM. Moreover, the TGI was above 100 µM in [7], above 100 µM in [8] and 91.3 µM in [9].

Consider `C/C=C/C1=C(Cl)C(=O)[C@@H](Cl)[C@@]1(O)C(=O)OC`, for which the TGI in assay [2] worked out at 3.22 µM; in assay [10] it was 4.28 µM; in assay [3] it was 2.52 µM; in assay [4] it was 6.23 µM; in [5] it was 6.94 µM; in assay [6] it was 6.45 µM. Also, the TGI in [7] worked out at 14.2 µM; in [8], 32.8 µM; in assay [9] it was 3.1 µM.

For the molecule `Cc1cc(Cl)cc2c(N=Nc3ccccc3[N+](=O)[O-])c(O)[nH]c12`, the TGI in assay [1], in assay [2], in [10], in assay [3], in assay [5] and in [7] was above 100 µM each time. In addition, the TGI in assay [8] and in assay [9] was above 100 µM throughout.

Consider `Nc1nc2sc3ccccc3c(=O)n2n1`, for which the TGI in assay [2], in assay [10], in assay [5], in assay [6], in assay [7] and in [8] was above 100 µM in each case. In assay [9], the TGI was above 100 µM.

For the molecule `CCN(CC)CCCn1cnc2ncccc2c1=O`, the TGI in assay [2], in [3], in assay [5], in assay [6], in assay [7] and in assay [8] was above 100 µM each time. In [9], this molecule returned a TGI above 100 µM.

As to `CC(=O)N1c2ccccc2C2=CC3C4C(=O)N(c5ccccc5)C(=O)C4C21C1C(=O)N(c2ccccc2)C(=O)C31` (configuration not stated), the TGI in assay [2] was above 100 µM; in assay [10], 58.8 µM; in assay [6], above 100 µM; in assay [7], above 100 µM; in assay [8], above 100 µM; in assay [9] it was above 100 µM.

For `O=C(Nc1ccccc1)c1nn(-c2cc(S(=O)(=O)O)c([N+](=O)[O-])cc2Cl)[n+](-c2cc(S(=O)(=O)[O-])c([N+](=O)[O-])cc2Cl)n1`, the TGI in [2], in [10], in assay [3], in assay [4], in [5] and in [7] was above 100 µM in each case. The TGI in assay [8] and in assay [9] was above 100 µM throughout.

As to `CCOc1ccccc1NC(=O)c1cc2ccccc2cc1O`, the GI50 in assay [2] is 12.7 µM; in assay [10], 2.31 µM; in assay [3], 2.22 µM; in assay [4] it was 3.13 µM; in [5] it was 3.16 µM; in assay [6], 3.16 µM. The GI50 is 4.91 µM in assay [7], 2.89 µM in assay [8] and 3.67 µM in assay [9]. The TGI in [2] is 26.3 µM; in assay [10] it was 5.47 µM; in assay [3], 6.9 µM; in assay [4] it was 14.2 µM; in assay [5], 8.98 µM; in assay [6], 11.3 µM. Also, the results for the TGI in assay [7], in assay [8] and in [9] were 20.2 µM, 15.8 µM and 12.6 µM, respectively.

`O=c1ccc(N=Nc2ccc([N+](=O)[O-])cc2)ccc1O`: the GI50 was 8.74 µM in [1]; 21.7 µM in assay [2]; 3.47 µM in assay [10]; 3.42 µM in assay [3]; 3.33 µM in assay [5]; 3.97 µM in [6]. For the same molecule, the results for the GI50 in assay [7], in [8] and in assay [9] were 8.65 µM, 10.8 µM and 3.45 µM, respectively. Further, the TGI in [1] is above 100 µM; in assay [2] it was above 100 µM; in assay [10], 38.8 µM; in [3] it was 28.3 µM; in assay [5] it was 25.8 µM; in [6], above 100 µM. The TGI in assay [7], in assay [8] and in [9] was above 100 µM each time.

`Cc1noc2cccc(OCc3ccccc3)c12`: the TGI in assay [2], in assay [10], in assay [3], in assay [5], in assay [6] and in assay [7] was above 100 µM throughout. The TGI in assay [8] is 87.6 µM; in assay [9] it was above 100 µM.

For `COc1ccc2c(c1)C(=O)N1CCOC1C2C(=O)O` (configuration not stated), the TGI in assay [10], in [3], in [5], in assay [6], in assay [7] and in [8] was above 100 µM throughout. In [9], this molecule had a TGI above 100 µM.

Take `O=C(O)C1=CCCc2ccc3ccccc3c21`: the total growth inhibition concentration (TGI) in assay [2], in assay [3], in assay [5], in assay [6], in assay [7] and in [8] was above 100 µM each time. In addition, the TGI in assay [9] was above 100 µM.

In the case of `[Cl][Sn]([Cl])([c]1ccccc1)[c]1ccccc1`, the GI50 was 4.03 µM in [10]; 13.4 µM in [5]; 14.4 µM in assay [6]; 2.43 µM in [7]; 10.8 µM in [8]; 3.02 µM in assay [9]. Also, the TGI in assay [10] amounted to 31.1 µM; in [5], 26.2 µM; in assay [6], 27.8 µM; in assay [7], 6.53 µM; in assay [8], 22.9 µM; in [9], 10.2 µM.

With `CCOC(=O)c1c(-c2ccccc2)oc(-c2ccccc2)c1C(=O)OCC`, the TGI in assay [2], in [10], in assay [3], in [5], in assay [6] and in assay [7] was above 100 µM throughout. Besides, the TGI in assay [8] and in assay [9] was above 100 µM throughout.

The values are drawn from PubChem BioAssay (NCI).
